In ChEMBL document CHEMBL5126582, “Discovery of (2-(pyrrolidin-1-yl)thieno[3,2-d]pyrimidin-4-yl)(3,4,5-trimethoxyphenyl)methanone as a novel potent tubulin depolymerizing and vascular disrupting agent” (Eur J Med Chem, 2022):
Active and inactive are the calls of the source. No cut-off for these calls is given here.

Key:
HeLa [1] = assay: Induction of apoptosis in human HeLa cells assessed as late apoptotic cells at 1 uM incubated for 72 hrs by annexin V FITC and propidium iodide staining based flow cytometry analysis (reference value: 4.70%); type: functional
HeLa [2] = assay: Inhibition of cell migration in human HeLa cells at 10 to 1000 nM measured up to 24 hrs wound healing assay; type: functional, cell-based; conditions: dose 10-1000 nM, DDE = dose-dependent effect
HeLa [3] = assay: Induction of apoptosis in human HeLa cells assessed as necrotic cells at 1 uM incubated for 72 hrs by annexin V FITC and propidium iodide staining based flow cytometry analysis (reference value: 2.88 %); type: functional
HeLa [4] = assay: Induction of apoptosis in human HeLa cells assessed as early apoptotic cells at 1 uM incubated for 72 hrs by annexin V FITC and propidium iodide staining based flow cytometry analysis (reference value: 2.36%); type: functional
HeLa [5] = assay: Induction of apoptosis in human HeLa cells assessed as early apoptotic cells at 750 nM incubated for 72 hrs by annexin V FITC and propidium iodide staining based flow cytometry analysis (reference value: 2.36%); type: functional
HeLa [6] = assay: Induction of apoptosis in human HeLa cells assessed as early apoptotic cells at 750 nM incubated for 24 hrs by annexin V FITC and propidium iodide staining based flow cytometry analysis (reference value: 0.12%); type: functional
HeLa [7] = assay: Induction of mitochondrial membrane potential alteration in human HeLa cells assessed as late apoptotic cells at 1 uM measured after 48 hrs by JC1 staining-based flow cytometry analysis (reference value: 0.009%); type: functional
HeLa [8] = assay: Induction of cell cycle arrest in human HeLa cells assessed as reduction of cells at G1 phase at 100 to 2000 nM incubated for 24 to 48 hrs by […] flow cytometry; type: functional; conditions: dose 100-2000 nM, time 24-48 hrs
HeLa [9] = assay: Induction of apoptosis in human HeLa cells assessed as viable cells at 750 nM incubated for 72 hrs by annexin V FITC and propidium iodide staining based flow cytometry analysis (reference value: 90.1%); type: functional; conditions: read-out: Activity
HeLa [10] = assay: Induction of apoptosis in human HeLa cells assessed as viable cells at 100 nM incubated for 72 hrs by annexin V FITC and propidium iodide staining based flow cytometry analysis (reference value: 90.1%); type: functional; conditions: read-out: Activity
HeLa [11] = assay: Induction of mitochondrial membrane potential alteration in human HeLa cells assessed as necrotic cells at 750 nM measured after 48 hrs by JC1 staining-based flow cytometry analysis (reference value: 0%); type: functional
HeLa [12] = assay: Induction of mitochondrial membrane potential alteration in human HeLa cells assessed as necrotic cells at 100 nM measured after 48 hrs by JC1 staining-based flow cytometry analysis (reference value: 0%); type: functional
HeLa [13] = assay: Induction of apoptosis in human HeLa cells assessed as late apoptotic cells at 500 nM incubated for 72 hrs by annexin V FITC and propidium iodide staining based flow cytometry analysis (reference value: 4.70%); type: functional
HeLa [14] = assay: Induction of mitochondrial membrane potential alteration in human HeLa cells assessed as late apoptotic cells at 100 nM measured after 48 hrs by JC1 staining-based flow cytometry analysis (reference value: 0.009%); type: functional
HeLa [15] = assay: Induction of apoptosis in human HeLa cells assessed as late apoptotic cells at 100 nM incubated for 24 hrs by annexin V FITC and propidium iodide staining based flow cytometry analysis (reference value: 0.05%); type: functional
HeLa [16] = assay: Induction of apoptosis in human HeLa cells assessed as viable cells at 100 nM incubated for 24 hrs by annexin V FITC and propidium iodide staining based flow cytometry analysis (reference value: 85.7%); type: functional; conditions: read-out: Activity
HeLa [17] = assay: Induction of apoptosis in human HeLa cells assessed as late apoptotic cells at 1 uM incubated for 24 hrs by annexin V FITC and propidium iodide staining based flow cytometry analysis (reference value: 0.05%); type: functional
HeLa [18] = assay: Inhibition of colony formation in human HeLa cells assessed as reduction in colony formation at 250 nM incubated for 24 hrs followed by culturing in fresh compound-free medium for 10 days by crystal violet staining based assay; type: functional, cell-based
HeLa [19] = assay: Induction of apoptosis in human HeLa cells assessed as necrotic cells at 500 nM incubated for 72 hrs by annexin V FITC and propidium iodide staining based flow cytometry analysis (reference value: 2.88 %); type: functional
HeLa [20] = assay: Induction of apoptosis in human HeLa cells assessed as viable cells at 750 nM incubated for 48 hrs by annexin V FITC and propidium iodide staining based flow cytometry analysis (reference value: 85.5%); type: functional; conditions: read-out: Activity
HeLa [21] = assay: Antiproliferative activity against human HeLa cells assessed as reduction in cell viability incubated for 48 hrs by MTS assay; type: functional, cell-based
HeLa [22] = assay: Inhibition of colony formation in human HeLa cells assessed as reduction in colony formation at 1 to 250 nM incubated for 48 hrs followed by culturing in fresh compound-free medium for 10 days by crystal violet staining based assay; type: functional, cell-based; conditions: dose 1-250 nM, DDE = dose-dependent effect
HUVEC = assay: Antivascular activity against human HUVEC cells assessed as inhibition of tube formation at 500 nM incubated for 3 hrs by matrigel matrix based microscopic analysis; type: functional, cell-based
HeLa [23] = assay: Induction of apoptosis in human HeLa cells assessed as necrotic cells at 750 nM incubated for 72 hrs by annexin V FITC and propidium iodide staining based flow cytometry analysis (reference value: 2.88 %); type: functional
HeLa [24] = assay: Induction of apoptosis in human HeLa cells assessed as necrotic cells at 1 uM incubated for 24 hrs by annexin V FITC and propidium iodide staining based flow cytometry analysis (reference value: 1.14 %); type: functional
HeLa [25] = assay: Induction of mitochondrial membrane potential alteration in human HeLa cells assessed as early apoptotic cells at 100 nM measured after 48 hrs by JC1 staining-based flow cytometry analysis (reference value: 9.07%); type: functional
HeLa [26] = assay: Induction of apoptosis in human HeLa cells assessed as late apoptotic cells at 1 uM incubated for 48 hrs by annexin V FITC and propidium iodide staining based flow cytometry analysis (reference value: 8.87%); type: functional
Tubulin (Homo sapiens) = Tubulin (Homo sapiens) (UniProt P68371+Q9H4B7+P0DPH7+P68366+Q13509+Q71U36+P04350+Q3ZCM7+P07437+P68363+Q9BQE3+Q6PEY2+Q13885+Q9BVA1+Q9BUF5); assay: Disruption of microtubule network in human HeLa cells at 100 to 500 nM incubated for 3 hrs by laser confocal microscopy analysis; type: cell-based; conditions: dose 100-500 nM, DDE = dose-dependent effect
HeLa [27] = assay: Induction of mitochondrial membrane potential alteration in human HeLa cells assessed as late apoptotic cells at 500 nM measured after 48 hrs by JC1 staining-based flow cytometry analysis (reference value: 0.009%); type: functional
HeLa [28] = assay: Induction of apoptosis in human HeLa cells assessed as late apoptotic cells at 750 nM incubated for 72 hrs by annexin V FITC and propidium iodide staining based flow cytometry analysis (reference value: 4.70%); type: functional
HeLa [29] = assay: Induction of apoptosis in human HeLa cells assessed as early apoptotic cells at 500 nM incubated for 48 hrs by annexin V FITC and propidium iodide staining based flow cytometry analysis (reference value: 6.01%); type: functional
[30] = Antiproliferative activity against human A549/PTX cells assessed as reduction in cell viability measured for 48 hrs by MTS assay; type: functional, cell-based

SMILES: COc1cc(C(=O)c2nc(N3CCCC3)nc3ccsc23)cc(OC)c1OC
- Activity (HeLa [1]): 24.7%
- inhibition (HeLa [2]): Dde
- Activity (HeLa [3]): 41.9%
- Activity (HeLa [4]): 5.47%
- Activity (HeLa [5]): 1.24%
- Activity (HeLa [6]): 8.59%
- Activity (HeLa [7]): 0.053%
- Activity (HeLa [8]): Active
- viability at 0.75 µM (HeLa [9]): 27.7%
- viability at 0.1 µM (HeLa [10]): 85.1%
- Activity (HeLa [11]): 0.019%
- Activity (HeLa [12]): 0.02%
- Activity (HeLa [13]): 14.5%
- Activity (HeLa [14]): 0.02%
- Activity (HeLa [15]): 5.04%
- viability at 0.1 µM (HeLa [16]): 80.5%
- Activity (HeLa [17]): 0.13%
- inhibition (HeLa [18]): Active
- Activity (HeLa [19]): 52.2%
- viability at 0.75 µM (HeLa [20]): 36.7%
- IC50 (HeLa [21]): 0.003 µM
- inhibition (HeLa [22]): Dde
- Activity (HUVEC): Active
- Activity (HeLa [23]): 40.8%
- Activity (HeLa [24]): 4.52%
- Activity (HeLa [25]): 7.59%
- Activity (HeLa [26]): 41.2%
- Activity (Tubulin (Homo sapiens)): Dde
- Activity (HeLa [27]): 0.019%
- Activity (HeLa [28]): 21.3%
- Activity (HeLa [29]): 4.64%
- IC50 [30]: 0.0244 µM
